Measurements published in the NIST ThermoML archive (doi:10.1016/j.fluid.2010.08.022).
± gives the expanded uncertainty stated by the source.

Settings: 101.33 kPa; for mass density: Vibrating tube method; for speed of sound: Sing-around technique in a fixed-path interferometer; for viscosity: Visco Elite L rheometer

CCCCCCCC/C=C\CCCCCCCC(=O)O.NCCO [2-hydroxyethylammonium oleate]
Settings	mass density [kg/m3]	speed of sound [m/s]	viscosity [mPa·s]
310.91 K, Liquid crystal of unknown type	928.395 ± 1.7	–	–
311.16 K, Liquid crystal of unknown type	928.237 ± 1.7	1466.6 ± 3.7	–
311.41 K, Liquid crystal of unknown type	928.077 ± 1.7	1465.8 ± 3.7	–
311.66 K, Liquid crystal of unknown type	927.918 ± 1.7	1465 ± 3.7	–
311.91 K, Liquid crystal of unknown type	927.76 ± 1.7	1464.2 ± 3.7	–
312.16 K, Liquid crystal of unknown type	927.599 ± 1.7	1463.4 ± 3.7	–
312.41 K, Liquid crystal of unknown type	927.441 ± 1.7	1462.6 ± 3.7	–
312.66 K, Liquid crystal of unknown type	927.283 ± 1.7	1461.8 ± 3.7	–
312.91 K, Liquid crystal of unknown type	927.122 ± 1.7	1461 ± 3.7	–
313.16 K, Liquid crystal of unknown type	926.962 ± 1.7	1460.2 ± 3.7	–
313.41 K, Liquid crystal of unknown type	926.805 ± 1.7	1459.4 ± 3.7	–
313.66 K, Liquid crystal of unknown type	926.647 ± 1.7	1458.6 ± 3.7	–
313.91 K, Liquid crystal of unknown type	926.486 ± 1.6	1457.8 ± 3.7	–
314.16 K, Liquid crystal of unknown type	926.328 ± 1.6	1457 ± 3.7	–
314.41 K, Liquid crystal of unknown type	926.167 ± 1.6	1456.2 ± 3.7	–
314.66 K, Liquid crystal of unknown type	926.009 ± 1.6	1455.4 ± 3.7	–
314.91 K, Liquid crystal of unknown type	925.851 ± 1.6	1454.6 ± 3.7	–
315.16 K, Liquid crystal of unknown type	925.69 ± 1.6	1453.8 ± 3.7	–
315.41 K, Liquid crystal of unknown type	925.531 ± 1.6	1453 ± 3.7	–
315.66 K, Liquid crystal of unknown type	925.372 ± 1.6	1452.2 ± 3.7	–
315.91 K, Liquid crystal of unknown type	925.214 ± 1.6	1451.4 ± 3.7	–
316.16 K, Liquid crystal of unknown type	925.054 ± 1.6	1450.6 ± 3.7	–
316.41 K, Liquid crystal of unknown type	924.895 ± 1.6	1449.8 ± 3.7	–
316.66 K, Liquid crystal of unknown type	924.735 ± 1.6	1449 ± 3.7	–
316.91 K, Liquid crystal of unknown type	924.575 ± 1.6	1448.2 ± 3.7	–
317.16 K, Liquid crystal of unknown type	924.416 ± 1.6	1447.4 ± 3.7	–
317.41 K, Liquid crystal of unknown type	924.257 ± 1.6	1446.6 ± 3.7	–
317.66 K, Liquid crystal of unknown type	924.098 ± 1.6	1445.8 ± 3.7	–
317.91 K, Liquid crystal of unknown type	923.938 ± 1.6	1445 ± 3.7	–
318.16 K, Liquid crystal of unknown type	923.779 ± 1.6	1444.2 ± 3.7	–
318.4 K, Liquid crystal of unknown type	923.621 ± 1.6	1443.4 ± 3.7	–
318.66 K, Liquid crystal of unknown type	923.461 ± 1.6	1442.6 ± 3.7	–
318.91 K, Liquid crystal of unknown type	923.302 ± 1.6	1441.8 ± 3.7	–
319.16 K, Liquid crystal of unknown type	923.142 ± 1.6	1441 ± 3.7	–
319.41 K, Liquid crystal of unknown type	922.982 ± 1.6	1440.2 ± 3.7	–
319.65 K, Liquid crystal of unknown type	922.821 ± 1.6	1439.4 ± 3.7	–
319.91 K, Liquid crystal of unknown type	922.663 ± 1.6	1438.6 ± 3.7	–
320.16 K, Liquid crystal of unknown type	922.502 ± 1.6	1437.8 ± 3.7	–
320.41 K, Liquid crystal of unknown type	922.343 ± 1.6	1437 ± 3.7	–
320.66 K, Liquid crystal of unknown type	922.184 ± 1.6	1436.2 ± 3.7	–
320.91 K, Liquid crystal of unknown type	922.026 ± 1.6	1435.5 ± 3.7	–
321.16 K, Liquid crystal of unknown type	921.864 ± 1.6	1434.7 ± 3.7	–
321.41 K, Liquid crystal of unknown type	921.705 ± 1.6	1433.9 ± 3.7	–
321.66 K, Liquid crystal of unknown type	921.546 ± 1.6	1433.1 ± 3.7	–
321.91 K, Liquid crystal of unknown type	921.386 ± 1.6	1432.3 ± 3.7	–
322.15 K, Liquid crystal of unknown type	921.225 ± 1.6	1431.5 ± 3.7	–
322.41 K, Liquid crystal of unknown type	921.066 ± 1.6	1430.8 ± 3.7	–
322.66 K, Liquid crystal of unknown type	920.906 ± 1.6	1430 ± 3.7	–
322.91 K, Liquid crystal of unknown type	920.746 ± 1.6	1429.2 ± 3.7	–
323.16 K, Liquid crystal of unknown type	920.588 ± 1.6	1428.4 ± 3.7	–
323.41 K, Liquid crystal of unknown type	920.427 ± 1.6	1427.6 ± 3.7	–
323.66 K, Liquid crystal of unknown type	920.268 ± 1.6	1426.8 ± 3.7	–
323.91 K, Liquid crystal of unknown type	920.108 ± 1.6	1426 ± 3.7	–
324.16 K, Liquid crystal of unknown type	919.948 ± 1.6	1425.3 ± 3.7	–
324.41 K, Liquid crystal of unknown type	919.788 ± 1.6	1424.5 ± 3.7	–
324.66 K, Liquid crystal of unknown type	919.629 ± 1.6	1423.7 ± 3.7	–
324.91 K, Liquid crystal of unknown type	919.469 ± 1.6	1422.9 ± 3.7	–
325.16 K, Liquid crystal of unknown type	919.309 ± 1.6	1422.1 ± 3.7	–
325.41 K, Liquid crystal of unknown type	919.149 ± 1.6	1421.3 ± 3.7	–
325.66 K, Liquid crystal of unknown type	918.989 ± 1.6	1420.5 ± 3.7	–
325.91 K, Liquid crystal of unknown type	918.828 ± 1.6	1419.7 ± 3.7	–
326.16 K, Liquid crystal of unknown type	918.669 ± 1.6	1419 ± 3.7	–
326.41 K, Liquid crystal of unknown type	918.508 ± 1.6	1418.2 ± 3.7	–
326.66 K, Liquid crystal of unknown type	918.347 ± 1.6	1417.4 ± 3.7	–
326.91 K, Liquid crystal of unknown type	918.187 ± 1.6	1416.6 ± 3.7	–
327.16 K, Liquid crystal of unknown type	918.029 ± 1.6	1415.8 ± 3.7	–
327.41 K, Liquid crystal of unknown type	917.867 ± 1.6	1415.1 ± 3.7	–
327.66 K, Liquid crystal of unknown type	917.707 ± 1.6	1414.3 ± 3.7	–
327.91 K, Liquid crystal of unknown type	917.547 ± 1.6	1413.5 ± 3.7	–
328.16 K, Liquid crystal of unknown type	917.387 ± 1.6	1412.7 ± 3.7	–
328.41 K, Liquid crystal of unknown type	917.226 ± 1.6	1412 ± 3.7	–
328.66 K, Liquid crystal of unknown type	917.066 ± 1.6	1411.2 ± 3.7	–
328.9 K, Liquid crystal of unknown type	916.907 ± 1.6	1410.4 ± 3.7	–
329.16 K, Liquid crystal of unknown type	916.746 ± 1.6	1409.6 ± 3.7	–
329.41 K, Liquid crystal of unknown type	916.585 ± 1.6	1408.9 ± 3.7	–
329.66 K, Liquid crystal of unknown type	916.424 ± 1.6	1408.1 ± 3.7	–
329.91 K, Liquid crystal of unknown type	916.265 ± 1.6	1407.3 ± 3.7	–
330.16 K, Liquid crystal of unknown type	916.103 ± 1.6	1406.5 ± 3.7	–
330.41 K, Liquid crystal of unknown type	915.943 ± 1.6	1405.8 ± 3.7	–
330.66 K, Liquid crystal of unknown type	915.784 ± 1.6	1405 ± 3.7	–
330.91 K, Liquid crystal of unknown type	915.622 ± 1.6	1404.2 ± 3.7	–
331.16 K, Liquid crystal of unknown type	915.461 ± 1.6	1403.5 ± 3.7	–
331.4 K, Liquid crystal of unknown type	915.3 ± 1.6	1402.7 ± 3.7	–
331.66 K, Liquid crystal of unknown type	915.14 ± 1.6	1401.9 ± 3.7	–
331.91 K, Liquid crystal of unknown type	914.98 ± 1.6	1401.2 ± 3.7	–
332.16 K, Liquid crystal of unknown type	914.818 ± 1.6	1400.4 ± 3.7	–
332.41 K, Liquid crystal of unknown type	914.658 ± 1.6	1399.6 ± 3.7	–
332.66 K, Liquid crystal of unknown type	914.496 ± 1.6	1398.8 ± 3.7	–
332.91 K, Liquid crystal of unknown type	914.336 ± 1.6	1398.1 ± 3.7	–
333.16 K, Liquid crystal of unknown type	914.175 ± 1.6	1397.3 ± 3.7	–
333.41 K, Liquid crystal of unknown type	914.015 ± 1.6	1396.5 ± 3.7	–
333.66 K, Liquid crystal of unknown type	913.853 ± 1.6	1395.7 ± 3.7	–
333.91 K, Liquid crystal of unknown type	913.692 ± 1.6	1395 ± 3.7	–
334.16 K, Liquid crystal of unknown type	913.531 ± 1.6	1394.2 ± 3.7	–
334.41 K, Liquid crystal of unknown type	913.369 ± 1.6	1393.4 ± 3.7	–
334.66 K, Liquid crystal of unknown type	913.208 ± 1.6	1392.6 ± 3.7	–
334.91 K, Liquid crystal of unknown type	913.046 ± 1.6	1391.9 ± 3.7	–
335.16 K, Liquid crystal of unknown type	912.885 ± 1.6	1391.1 ± 3.7	–
335.4 K, Liquid crystal of unknown type	912.725 ± 1.6	1390.3 ± 3.7	–
335.66 K, Liquid crystal of unknown type	912.564 ± 1.6	1389.6 ± 3.7	–
335.91 K, Liquid crystal of unknown type	912.403 ± 1.6	1388.8 ± 3.7	–
336.16 K, Liquid crystal of unknown type	912.241 ± 1.6	1388 ± 3.7	–
336.41 K, Liquid crystal of unknown type	912.079 ± 1.6	1387.2 ± 3.7	–
336.66 K, Liquid crystal of unknown type	911.917 ± 1.6	1386.5 ± 3.7	–
336.91 K, Liquid crystal of unknown type	911.757 ± 1.6	1385.8 ± 3.7	–
337.16 K, Liquid crystal of unknown type	911.595 ± 1.6	1385 ± 3.7	–
337.41 K, Liquid crystal of unknown type	911.432 ± 1.6	1384.2 ± 3.7	–
337.66 K, Liquid crystal of unknown type	911.272 ± 1.6	1383.5 ± 3.7	–
337.91 K, Liquid crystal of unknown type	911.11 ± 1.6	1382.7 ± 3.7	–
338.15 K, Liquid crystal of unknown type	–	–	225.9 ± 3.9
338.16 K, Liquid crystal of unknown type	910.95 ± 1.6	1381.9 ± 3.7	–
338.41 K, Liquid crystal of unknown type	910.787 ± 1.6	1381.2 ± 3.7	–
338.66 K, Liquid crystal of unknown type	910.626 ± 1.6	1380.4 ± 3.7	–
338.9 K, Liquid crystal of unknown type	910.464 ± 1.6	1379.7 ± 3.7	–
339.16 K, Liquid crystal of unknown type	910.301 ± 1.6	1378.9 ± 3.7	–
339.41 K, Liquid crystal of unknown type	910.142 ± 1.6	1378.1 ± 3.7	–
339.66 K, Liquid crystal of unknown type	909.978 ± 1.6	1377.4 ± 3.7	–
339.9 K, Liquid crystal of unknown type	909.815 ± 1.6	1376.6 ± 3.7	–
340.16 K, Liquid crystal of unknown type	909.655 ± 1.6	1375.9 ± 3.7	–
340.4 K, Liquid crystal of unknown type	909.492 ± 1.6	1375.1 ± 3.7	–
340.66 K, Liquid crystal of unknown type	909.33 ± 1.6	1374.4 ± 3.7	–
340.91 K, Liquid crystal of unknown type	909.169 ± 1.6	1373.6 ± 3.7	–
341.16 K, Liquid crystal of unknown type	909.006 ± 1.6	1372.9 ± 3.7	–
341.41 K, Liquid crystal of unknown type	908.843 ± 1.6	1372.1 ± 3.7	–
341.66 K, Liquid crystal of unknown type	908.682 ± 1.6	1371.3 ± 3.7	–
341.9 K, Liquid crystal of unknown type	908.521 ± 1.6	1370.6 ± 3.7	–
342.16 K, Liquid crystal of unknown type	908.356 ± 1.6	1369.8 ± 3.7	–
342.41 K, Liquid crystal of unknown type	908.195 ± 1.6	1369.1 ± 3.7	–
342.65 K, Liquid crystal of unknown type	908.033 ± 1.6	1368.3 ± 3.7	–
342.9 K, Liquid crystal of unknown type	907.872 ± 1.6	1367.6 ± 3.7	–
343.15 K, Liquid crystal of unknown type	907.717 ± 1.6	1366.9 ± 3.7	–
348.15 K, Liquid crystal of unknown type	–	–	129.1 ± 2.6
353.15 K, Liquid crystal of unknown type	–	–	97.5 ± 1.8
358.15 K, Liquid crystal of unknown type	–	–	79.2 ± 1.4
368.15 K, Liquid	–	–	50.5 ± 1
